Measured values as given in paper PMC4111603 (PLoS ONE, 2014).
Read-outs that look alike come from different tables or passages of the source.

Columns and labels:
[1] = cited from earlier work
rat brain FAAH = target: T1, rat brain FAAH (Rattus norvegicus, UniProt P97612); test: FAAH hydrolysis of [3H]AEA in rat brain homogenates; format: biochemical; conditions: 0.5 µM AEA
T1 construct: FAAH activity was quantified by measuring hydrolysis of tritium labelled AEA in rat brain homogenates; from tissue; host or cells: rat brain (minus cerebella), Wistar or Sprague-Dawley, washed membrane pellets
T1 sequence (P97612 1-579): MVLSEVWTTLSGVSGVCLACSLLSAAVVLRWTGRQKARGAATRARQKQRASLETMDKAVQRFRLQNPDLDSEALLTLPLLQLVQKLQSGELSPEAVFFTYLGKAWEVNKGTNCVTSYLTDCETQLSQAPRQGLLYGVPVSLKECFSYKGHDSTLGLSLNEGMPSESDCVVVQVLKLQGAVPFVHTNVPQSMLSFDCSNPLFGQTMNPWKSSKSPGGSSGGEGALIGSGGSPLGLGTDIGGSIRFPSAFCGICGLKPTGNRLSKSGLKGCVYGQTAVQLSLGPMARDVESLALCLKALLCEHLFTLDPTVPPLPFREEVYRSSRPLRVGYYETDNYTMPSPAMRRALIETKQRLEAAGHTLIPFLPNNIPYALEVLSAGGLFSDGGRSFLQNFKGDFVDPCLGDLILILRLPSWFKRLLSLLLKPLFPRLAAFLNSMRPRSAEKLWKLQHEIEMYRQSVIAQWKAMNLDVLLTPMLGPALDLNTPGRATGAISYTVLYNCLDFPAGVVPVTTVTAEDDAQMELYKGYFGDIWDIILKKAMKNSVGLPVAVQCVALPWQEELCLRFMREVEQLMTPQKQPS
Experimental: Brains (minus cerebella) from adult Wistar or Sprague-Dawley stored at −80°C were thawed, weighed and homogenized in cold buffer (20 mM HEPES, 1 mM MgCl2 pH 7.0). Homogenates were centrifuged at 35,000 g at 4°C for 20 min and the pellet was resuspended in homogenization buffer (repeated twice) before being incubated at 37°C for 15 min to degrade any endogenous substrate that might interfere with the FAAH assay. Following centrifugation, the pellets were resuspended in cold buffer (50 mM Tris-HCl, 1 mM EDTA, 3 mM MgCl2, pH 7.4). The protein concentration of each homogenates was determined according to the Bradford assay after which the samples were frozen in aliquots at −80°C until used for FAAH assay. Ethical permission for the animal experiments was obtained from the local animal research ethical committee (Umeå Ethical Committee for Animal Research, Umeå, Sweden).
The assay was performed according to Boldrup et al.. Homogenates (1 µg protein per assay) diluted in 10 mM Tris-HCl, 1 mM EDTA, pH 7.4 or pH 5.1 were mixed with test substance dissolved in DMSO (total concentration in assay 5%) at an ambient temperature of 4°C. Reactions were initiated by addition of AEA-[^3H] (assay concentration 0.5 µM) in 10 mM Tris-HCl, 1 mM EDTA, pH 7.4 containing 10 mg ml^−1 fatty acid-free bovine serum and incubation at 37°C which was allowed to proceed for 10 min. […] Blank samples contained buffer instead of homogenate and DMSO (5%). The assay volume of each sample was 200 µl. The pH values given in the text were determined by measurement at 37°C of scaled-up mixtures of homogenization and assay buffers. The reaction was terminated by addition of 400 µl activated charcoal (80 µl activated charcoal +320 µl 0.5 M HCl) and placement of samples on ice. Samples were kept in room temperature for 45–60 min before being centrifuged at 2500 rpm for 10 min. Aliquots (200 µl) of the supernatant was analyzed for tritium content by liquid scintillation with quench correction.
FAAH inhibition was calculated using log(inhibitor) vs. response with variable slope (four parameters) algorithm in the GraphPad Prism computer program (GraphPad Software Inc., San Diego, CA. USA). […] The two curves were compared by Akaike’s informative criteria and the best fit was chosen. Initial COX activities were calculated as the change in oxygen tension between 10 and 30 seconds after addition of enzyme.

[2] = pH 6.0, read-out: IC50, inhibition of [3H]AEA hydrolysis (converted)
[3] = pH 6.0, read-out: pI50, inhibition of [3H]AEA hydrolysis (converted)
[4] = pH 7.3, read-out: IC50, inhibition of [3H]AEA hydrolysis (converted)
[5] = pH 7.3, read-out: pI50, inhibition of [3H]AEA hydrolysis (converted)

| IC50 (rat brain FAAH; [2]) [µM] | IC50 (rat brain FAAH; [3]) [µM] | inhibition at 1000 µM (rat brain FAAH; read-out: % inhibition of [3H]AEA hydrolysis @ 1000 µM, pH 7.3, 1000 µM compound) [%] | IC50 (rat brain FAAH; [4]) [µM] | IC50 (rat brain FAAH; [5]) [µM] | Structure (SMILES) | urinary recovery ([1]; 24 h after administration of 400 mg of ibuprofen) [%] | share of the dose recovered in the urine ([1]; flurbiprofen 50 mg a day for 10 consecutive days) [%] |
| --- | --- | --- | --- | --- | --- | --- | --- |
| 380 | 380 | 15 ± 7 |  |  | CC(C(=O)O)c1ccc(CC(C)(C)O)cc1 (stereo not shown) [2′-OH-Ibuprofen, 2-[4-(2-hydroxy-2-methylpropyl)phenyl]propionic acid] | 23 |  |
| 200 | 200 |  | 990 | 977 | CC(CO)Cc1ccc(C(C)C(=O)O)cc1 (stereo not shown) [3′-OH-Ibuprofen, 2-[4-(3-hydroxy-2-methylpropyl)phenyl]propionic acid] |  |  |
| 84 | 85.1 |  | 310 | 316 | CC(C(=O)O)c1ccc(-c2ccc(O)cc2)c(F)c1 (stereo not shown) [4′-OH-Flurbiprofen] |  | 43 |
